In patent US20250325534A1, “MICROBIOCIDAL TETRAHYDROISOQUINOLINE DERIVATIVES” (SYNGENTA CROP PROTECTION AG, priority 2021, published 2025):

Legend:
Alternaria solani = Alternaria solani / tomato / leaf disc (early blight); type: in vivo; details: foliar, inoculated 2 days after application, vs untreated control
Experimental: Example B1: Alternaria solani/Tomato/Leaf Disc (Early Blight) Tomato leaf disks cv. Baby are placed on agar in multiwell plates (24-well format) and sprayed with the formulated test compound diluted in water. The leaf disks are inoculated with a spore suspension of the fungus 2 days after application. The inoculated leaf disks are incubated at 23° C./21° C. (day/night) and 80% relative humidity under a light regime of 12 h/12 h (light/dark) in a climate cabinet and the activity of a compound is assessed as percent disease control compared to untreated when an appropriate level of disease damage appears on untreated check disk leaf disks (5-7 days after application).

Glomerella lagenarium = Glomerella lagenarium (Colletotrichum lagenarium) / liquid culture (anthracnose); type: cell-based; details: Colletotrichum orbiculare, 72 h, photometrically 3-4 days after application, read-out: control of Glomerella lagenarium
Experimental: (§1) Example B5: Glomerella Lagenarium (Colletotrichum Lagenarium)/Liquid Culture (Anthracnose) Conidia of the fungus from cryogenic storage are directly mixed into a nutrient broth (potato dextrose broth). After placing a DMSO solution of test compound into a microtiter plate (96-well format), the nutrient broth containing the fungal spores is added. The test plates are incubated at 24° C. and the inhibition of growth is measured photometrically 3-4 days after application.

Monographella nivalis = Monographella nivalis (Microdochium nivale) / liquid culture (foot rot cereals); type: cell-based; details: 96 h, photometrically 4-5 days after application, read-out: control of Monographella nivalis
Summary of the method: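 Test compound, applied as a DMSO solution, was challenged with fungal spores suspended in potato dextrose broth; after 4-5 days at 24° C, photometric readout gave inhibition of growth.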

Mycosphaerella arachidis = Mycosphaerella arachidis (Cercospora arachidicola) / liquid culture (early leaf spot); type: cell-based; details: 96 h, photometrically 4-5 days after application, read-out: control of Mycosphaerella arachidis
Summary of the method: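 Photometric growth inhibition, read 4-5 days post-application at 24 °C, of Cercospora arachidicola spores suspended in potato dextrose broth and exposed to test compound delivered from DMSO solution.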

[1] = test system: Mycosphaerella graminicola; test: Mycosphaerella graminicola (Septoria tritici) / liquid culture (Septoria blotch); type: cell-based; details: Zymoseptoria tritici, 96 h, photometrically 4-5 days after application, read-out: control of Mycosphaerella graminicola
Summary of the method: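 Growth inhibition measured by photometry 4-5 days post application, at 24° C incubation. Test compound supplied as DMSO solution; fungal conidia from cryostorage suspended directly in potato dextrose broth as inoculum.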

Botryotinia fuckeliana = Botryotinia fuckeliana (Botrytis cinerea) / liquid culture (gray mould); type: cell-based; details: 72 h, growth inhibition photometrically 3-4 days after application, read-out: control of Botryotinia fuckeliana
Experimental: as §1, with “B2: Botryotinia Fuckeliana (Botrytis cinerea)/Liquid” for “B5: Glomerella Lagenarium (Colletotrichum Lagenarium)/Liquid”, “(Gray Mould)” for “(Anthracnose)”, “(Vogels” for “(potato dextrose”, “determined” for “measured”

Phaeosphaeria nodorum = Phaeosphaeria nodorum (Septoria nodorum) / wheat / leaf disc preventative (glume blotch); type: in vivo; details: Parastagonospora nodorum, foliar, inoculated 2 days after application
Experimental: Example B9: Phaeosphaeria nodorum (Septoria nodorum)/Wheat/Leaf Disc Preventative (Glume Blotch) Wheat leaf segments cv. Kanzler are placed on agar in a multiwell plate (24-well format) and sprayed with the formulated test compound diluted in water. The leaf disks are inoculated with a spore suspension of the fungus 2 days after application. The inoculated test leaf disks are incubated at 20° C. and 75% relative humidity under a light regime of 12 h light/12 h darkness in a climate cabinet and the activity of a compound is assessed as percent disease control compared to untreated when an appropriate level of disease damage appears in untreated check leaf disks (5-7 days after application).

Cn1cc(C2CN(C(=O)c3cc(-c4ccccc4)on3)Cc3ccccc32)cn1 (single isomer, unassigned) [Compound P-165]
≥ 80%: pest or weed control at 200 ppm (Alternaria solani) | inhibition of growth at 20 ppm (Glomerella lagenarium) | inhibition of growth at 20 ppm (Monographella nivalis) | inhibition of growth at 20 ppm (Mycosphaerella arachidis) | inhibition of growth at 20 ppm [1]

Cn1cc(C2CN(C(=O)c3nnc(-c4ccc(F)cc4F)s3)Cc3ccccc32)cn1 (stereo not shown) [Compound P-1, [5-(2,4-difluorophenyl)-1,3,4-thiadiazol-2-yl]-[4-(1-methylpyrazol-4-yl)-3,4-dihydro-1H-isoquinolin-2-yl]methanone]
≥ 80%: inhibition of growth at 20 ppm (Botryotinia fuckeliana) | inhibition of growth at 20 ppm (Glomerella lagenarium) | inhibition of growth at 20 ppm (Monographella nivalis) | inhibition of growth at 20 ppm (Mycosphaerella arachidis) | inhibition of growth at 20 ppm [1]

Cc1c(C2(C)CN(C(=O)c3cc(-c4ccc(F)cc4F)on3)C(C)c3ccccc32)cnn1C (stereo not shown) [Compound P-16, [5-(2,4-difluorophenyl)isoxazol-3-yl]-[4-(1,5-dimethylpyrazol-4-yl)-1,4-dimethyl-1,3-dihydroisoquinolin-2-yl]methanone]
≥ 80%: inhibition of growth at 20 ppm (Botryotinia fuckeliana) | inhibition of growth at 20 ppm (Glomerella lagenarium) | inhibition of growth at 20 ppm (Monographella nivalis) | inhibition of growth at 20 ppm (Mycosphaerella arachidis) | inhibition of growth at 20 ppm [1]

COc1ccc2c(c1)C(c1cnn(C)c1)CN(C(=O)c1cc(-c3ccc(F)cc3F)on1)C2C (stereo not shown) [Compound P-47, [5-(2,4-difluorophenyl)isoxazol-3-yl]-[6-methoxy-1-methyl-4-(1-methylpyrazol-4-yl)-3,4-dihydro-1H-isoquinolin-2-yl]methanone]
≥ 80%: inhibition of growth at 20 ppm (Botryotinia fuckeliana) | inhibition of growth at 20 ppm (Glomerella lagenarium) | inhibition of growth at 20 ppm (Monographella nivalis) | inhibition of growth at 20 ppm (Mycosphaerella arachidis) | inhibition of growth at 20 ppm [1]

Cn1cc(C2CN(C(=O)c3noc(-c4cccc(F)c4)n3)Cc3ccccc32)cn1 (stereo not shown) [Compound P-92, [5-(3-fluorophenyl)-1,2,4-oxadiazol-3-yl]-[4-(1-methylpyrazol-4-yl)-3,4-dihydro-1H-isoquinolin-2-yl]methanone]
≥ 80%: pest or weed control at 200 ppm (Alternaria solani) | inhibition of growth at 20 ppm (Glomerella lagenarium) | inhibition of growth at 20 ppm (Monographella nivalis) | inhibition of growth at 20 ppm (Mycosphaerella arachidis) | inhibition of growth at 20 ppm [1]

Cn1cc(C2CN(C(=O)c3cc(-c4ccc(F)cc4F)on3)Cc3cc(F)ccc32)cn1 (stereo not shown) [Compound P-134, [5-(2,4-difluorophenyl)isoxazol-3-yl]-[7-fluoro-4-(1-methylpyrazol-4-yl)-3,4-dihydro-1H-isoquinolin-2-yl]methanone]
≥ 80%: pest or weed control at 200 ppm (Alternaria solani) | inhibition of growth at 20 ppm (Monographella nivalis) | inhibition of growth at 20 ppm (Mycosphaerella arachidis) | inhibition of growth at 20 ppm [1]

Cn1cc(C2CN(C(=O)c3cc(-c4ccc(F)cc4F)on3)Cc3ccc(F)cc32)cn1 (stereo not shown) [Compound P-135, [5-(2,4-difluorophenyl)isoxazol-3-yl]-[6-fluoro-4-(1-methylpyrazol-4-yl)-3,4-dihydro-1H-isoquinolin-2-yl]methanone]
≥ 80%: inhibition of growth at 20 ppm (Botryotinia fuckeliana) | inhibition of growth at 20 ppm (Monographella nivalis) | inhibition of growth at 20 ppm (Mycosphaerella arachidis) | inhibition of growth at 20 ppm [1]

Cn1cc(C2CN(C(=O)c3nc(-c4ccccc4)no3)Cc3ccccc32)cn1 (stereo not shown) [Compound P-152, [4-(1-methylpyrazol-4-yl)-3,4-dihydro-1H-isoquinolin-2-yl]-(3-phenyl-1,2,4-oxadiazol-5-yl)methanone]
≥ 80%: inhibition of growth at 20 ppm (Botryotinia fuckeliana) | inhibition of growth at 20 ppm (Glomerella lagenarium) | inhibition of growth at 20 ppm (Monographella nivalis) | inhibition of growth at 20 ppm (Mycosphaerella arachidis) | inhibition of growth at 20 ppm [1]

Cn1cc(C2CN(C(=O)c3cc(-c4ccccc4F)no3)Cc3ccccc32)cn1 (stereo not shown) [Compound P-154, [3-(2-fluorophenyl)isoxazol-5-yl]-[4-(1-methylpyrazol-4-yl)-3,4-dihydro-1H-isoquinolin-2-yl]methanone]
≥ 80%: inhibition of growth at 20 ppm (Botryotinia fuckeliana) | inhibition of growth at 20 ppm (Glomerella lagenarium) | inhibition of growth at 20 ppm (Monographella nivalis) | inhibition of growth at 20 ppm (Mycosphaerella arachidis) | inhibition of growth at 20 ppm [1]

Cn1cc(C2CN(C(=O)c3cc(-c4ccccc4)no3)Cc3ccccc32)cn1 (stereo not shown) [Compound P-158, [4-(1-methylpyrazol-4-yl)-3,4-dihydro-1H-isoquinolin-2-yl]-(3-phenylisoxazol-5-yl)methanone]
≥ 80%: pest or weed control at 200 ppm (Alternaria solani) | inhibition of growth at 20 ppm (Botryotinia fuckeliana) | inhibition of growth at 20 ppm (Glomerella lagenarium) | inhibition of growth at 20 ppm (Monographella nivalis) | inhibition of growth at 20 ppm (Mycosphaerella arachidis) | inhibition of growth at 20 ppm [1]

Cn1cc(C2CN(C(=O)c3cc(-c4cccc(F)c4)no3)Cc3ccccc32)cn1 (stereo not shown) [Compound P-159, [3-(3-fluorophenyl)isoxazol-5-yl]-[4-(1-methylpyrazol-4-yl)-3,4-dihydro-1H-isoquinolin-2-yl]methanone]
≥ 80%: inhibition of growth at 20 ppm (Botryotinia fuckeliana) | inhibition of growth at 20 ppm (Monographella nivalis) | inhibition of growth at 20 ppm (Mycosphaerella arachidis) | inhibition of growth at 20 ppm [1]

Cn1cc(C2CN(C(=O)c3nnc(-c4ccccc4)s3)Cc3ccccc32)cn1 (stereo not shown) [Compound P-162, [4-(1-methylpyrazol-4-yl)-3,4-dihydro-1H-isoquinolin-2-yl]-(5-phenyl-1,3,4-thiadiazol-2-yl)methanone]
≥ 80%: inhibition of growth at 20 ppm (Botryotinia fuckeliana) | inhibition of growth at 20 ppm (Glomerella lagenarium) | inhibition of growth at 20 ppm (Monographella nivalis) | inhibition of growth at 20 ppm (Mycosphaerella arachidis) | inhibition of growth at 20 ppm [1]

Cn1cc(C2CN(C(=O)c3cc(-c4ccsc4)on3)Cc3ccccc32)cn1 (stereo not shown) [Compound P-181, [4-(1-methylpyrazol-4-yl)-3,4-dihydro-1H-isoquinolin-2-yl]-[5-(3-thienyl)isoxazol-3-yl]methanone]
≥ 80%: pest or weed control at 200 ppm (Alternaria solani) | inhibition of growth at 20 ppm (Glomerella lagenarium) | inhibition of growth at 20 ppm (Mycosphaerella arachidis) | inhibition of growth at 20 ppm [1]

Cn1cc(C2CN(C(=O)c3cc(-c4ccccc4F)on3)Cc3ccccc32)cn1 (stereo not shown) [Compound P-191, [5-(2-fluorophenyl)isoxazol-3-yl]-[4-(1-methylpyrazol-4-yl)-3,4-dihydro-1H-isoquinolin-2-yl]methanone]
≥ 80%: pest or weed control at 200 ppm (Alternaria solani) | inhibition of growth at 20 ppm (Glomerella lagenarium) | inhibition of growth at 20 ppm (Monographella nivalis) | inhibition of growth at 20 ppm (Mycosphaerella arachidis) | inhibition of growth at 20 ppm [1]

Cn1cc(C2CN(C(=O)c3cc(-c4ccc(F)cc4)on3)Cc3ccccc32)cn1 (stereo not shown) [Compound P-192, [5-(4-fluorophenyl)isoxazol-3-yl]-[4-(1-methylpyrazol-4-yl)-3,4-dihydro-1H-isoquinolin-2-yl]methanone]
≥ 80%: inhibition of growth at 20 ppm (Botryotinia fuckeliana) | inhibition of growth at 20 ppm (Glomerella lagenarium) | inhibition of growth at 20 ppm [1]

Cc1ccc(-c2cc(C(=O)N3Cc4ccccc4C(c4cnn(C)c4)C3)no2)cc1 (stereo not shown) [Compound P-204, [4-(1-methylpyrazol-4-yl)-3,4-dihydro-1H-isoquinolin-2-yl]-[5-(p-tolyl)isoxazol-3-yl]methanone]
≥ 80%: pest or weed control at 200 ppm (Phaeosphaeria nodorum) | inhibition of growth at 20 ppm [1]

Cn1cc([C@@]2(C)CN(C(=O)c3nnc(-c4ccc(F)cc4F)s3)Cc3ccccc32)cn1 [Compound P-209, [5-(2,4-difluorophenyl)-1,3,4-thiadiazol-2-yl]-[(4S)-4-methyl-4-(1-methylpyrazol-4-yl)-1,3-dihydroisoquinolin-2-yl]methanone]
≥ 80%: inhibition of growth at 20 ppm (Botryotinia fuckeliana) | inhibition of growth at 20 ppm (Glomerella lagenarium) | inhibition of growth at 20 ppm (Monographella nivalis) | inhibition of growth at 20 ppm (Mycosphaerella arachidis) | inhibition of growth at 20 ppm [1]

CC1c2ccc(Br)cc2C(C)(c2cnn(C)c2)CN1C(=O)c1cc(-c2ccc(F)cc2F)on1 (stereo not shown) [Compound P-215, [6-bromo-1,4-dimethyl-4-(1-methylpyrazol-4-yl)-1,3-dihydroisoquinolin-2-yl]-[5-(2,4-difluorophenyl)isoxazol-3-yl]methanone]
≥ 80%: inhibition of growth at 20 ppm (Botryotinia fuckeliana) | inhibition of growth at 20 ppm (Glomerella lagenarium) | inhibition of growth at 20 ppm (Monographella nivalis) | inhibition of growth at 20 ppm (Mycosphaerella arachidis) | inhibition of growth at 20 ppm [1]
